≈ marks a conversion by molar mass, not a printed value. Read-outs that look alike come from different tables or passages of the source. Where only a bound is given, the exact number is not on record here.

Assay [1] relates to HeLa cells (cervical adenocarcinoma). Nature of the assay: MTT assay. Type of assay: cell-based, human. The following applies: for TGI (total growth inhibition) / GI50 / IC50: HeLa; for GI50 / IC50: Homo sapiens; for GI50: read-out: GI50 (50% growth inhibition); for IC50: read-out: IC50; for SI (selectivity index): IC50 MRC-5 / IC50 HeLa. In general terms: Tetrazolium assays rely on reduction of a dye to a coloured formazan, in cell work by metabolically active cells.

For assay [2], the system named is HCT 116 cells (colon cancer). In words: MTT assay. The following applies: for GI50 / IC50: Homo sapiens; for GI50: read-out: GI50 (50% growth inhibition); for IC50: read-out: IC50. In kind it is cell-based, human.
Assay [3] has as its system MRC-5 cells (nontransformed human lung fibroblast). In words: MTT assay. In kind it is cell-based. The following applies: for GI50 / IC50: Homo sapiens; for GI50: MRC5, read-out: GI50 (50% growth inhibition); for IC50: MRC5, read-out: IC50.
The subject of a further assay is A. niger ATCC 16888. In words: Microdilution with resazurin, antifungal. In kind it is cell-based, Aspergillus niger. The following applies: Aspergillus niger, ATCC16888, antimycotics. As for the experimental part: (§1) The tested methanol, acetone, and n-hexane extracts, as well as the component (usnic acid) of X. stenophylla, were dissolved in 10% dimethyl sulfoxide (DMSO) and then diluted into the nutrient liquid medium. DMSO was obtained from Acros Organics (Fair Lawn, NJ, USA). Resazurin was obtained from Alfa Aesar GmbH & Co. (KG, Karlsruhe, Germany).
(§2) The antimicrobial activity of the extracts and components was tested against 19 microorganisms. The experiment involved 15 strains of bacteria (i.e., 6 standard strains: Staphylococcus aureus ATCC 6538, Bacillus subtilis ATCC 6633, Proteus mirabilis ATCC 12453, Pseudomonas aeruginosa ATCC 27853, Klebsiella pneumoniae ATCC 70063, and Escherichia coli ATCC 25922; 9 isolates: Staphylococcus aureus, Escherichia coli, Salmonella enterica, Salmonella Typhimurium, Proteus mirabilis, Klebsiella pneumoniae, Pseudomonas aeruginosa, Bacillus subtilis, and Bacillus cereus). In addition, four fungal strains (i.e., two standard strains: Candida albicans ATCC 10231 and Aspergillus niger ATCC 16888; two isolates: Saccharomyces cerevisiae and Candida albicans) were tested. All isolates were a generous gift from the Institute of Public Health, Kragujevac. The other microorganisms were provided from the collection held by the Microbiology Laboratory Faculty of Science, University of Kragujevac.
(§3) The bacterial suspensions were prepared by the direct colony method. The turbidity of the initial suspension was adjusted using a densitometer (DEN-1, BioSan, Riga, Latvia). When adjusted to the turbidity of the 0.5 McFarland’s standard (Andrews, 2005) the bacteria suspension contained approximately 10^8 colony-forming units (CFU)/mL, and the suspension of yeast contained 10^6 CFU/mL; 1:100 dilutions of the initial suspension were additionally prepared in sterile 0.85% saline. The suspensions of fungal spores were prepared by gentle stripping of spores from slopes with growing mycelia. The resulting suspensions were 1:1000 diluted in sterile 0.85% saline.
(§4) Antimicrobial activity was tested by determining the minimum inhibitory concentrations (MICs) and minimum microbicidal concentrations (MBCs) using the microdilution plate method with resazurin [56]. The 96-well plates were prepared by dispensing 100 μL of Mueller–Hinton broth for bacteria and Sabouard broth for fungi into each well. A 10 μL aliquot from the stock solution of the tested extract or component was added to the first row of the plate. Then, two-fold serial dilutions were performed using a multichannel pipette. The obtained concentration range was from 10 to 0.08 mg/mL. The method is described in detail in [76].
(§5) Each test included growth control and sterility control.
(§6) Minimum microbicidal concentrations were determined by plating 10 μL of samples from wells where no indicator color change or no mycelia growth was recorded on a nutrient agar medium. At the end of the incubation period, the lowest concentration with no growth (no colony) was defined as the minimum microbicidal concentration.
For orientation: Dilution methods test growth across graded concentrations, often in twofold steps.

The test system of the next assay is C. albicans (isolate). Nature of the assay: Microdilution with resazurin, antifungal. In kind it is cell-based, Candida albicans. The conditions noted are these: Candida albicans, antimycotics. As to the method:
as §1, §2, §3, §4, §5, §6

The next assay relates to C. albicans ATCC 10231. Nature of the assay: Microdilution with resazurin, antifungal. Type of assay: cell-based, Candida albicans. The following applies: Candida albicans, ATCC10231, antimycotics. As for the experimental part:
as §1, §2, §3, §4, §5, §6

Assay [4] has as its system S. aureus ATCC 6538 biofilm. Nature of the assay: Antibiofilm activity (biofilm formation, crystal violet). Type of assay: cell-based, Staphylococcus aureus. The following applies: for IC50: Staphylococcus aureus, read-out: BIC50 (biofilm inhibitory concentration, 50% reduction of biofilm coverage). As to the method:
(§7) The ability of S. aureus ATCC 6538 and P. aeruginosa to form biofilms was assayed as described by O’Toole et al. with some modifications. Briefly, the tissue culture of 96-well microtiter plates (Sarstedt, Germany) were prepared by dispensing 100 µL of nutrient broth (i.e., Mueller–Hinton broth) into each well. Ten microliters of spore suspension (10^8 colony-forming units (CFU)/mL) was added into each row. […] Biofilms formed by adherent cells in 96-well microtiter plates were stained with crystal violet (0.1% w/v; Fluka AG, Buchs, Switzerland) and incubated at room temperature for 20 min. Excess stain was rinsed off by thorough washing with deionized water and then with […] of 96% ethanol. Optical densities (ODs) of stained adherent bacteria were determined with an enzyme-linked immunosorbent assay (ELISA) plate reader (RT-2100C, Rayto, Shenzhen, China) at a 630 nm wavelength. Only broth served as a control to check sterility and nonspecific binding of media. To compensate for background absorbance, OD readings from sterile medium, fixative, and dye were averaged and subtracted from all test values. All tests were performed in duplicate. The tissue culture of 96-well microtiter plates (Sarstedt, Nümbrecht, Germany) were prepared by dispensing 100 µL of nutrient broth (i.e., Mueller–Hinton broth) into each well. From the stock solution of the tested extracts or components (concentration: 20 mg/mL), 100 µL was added to the first row of the microtiter plate. Two-fold serial dilutions were then made using a multichannel pipette, following which 10 µL of fresh bacterial suspension was added to each well. The inoculated microtiter plates were incubated at 37 °C for 48 h. After incubation, the content of each well was gently removed by tapping the microtiter plates. […] Biofilms formed by adherent cells in 96-well microtiter plates were stained with crystal violet (0.1% w/v; Fluka AG, Switzerland) and incubated at room temperature for 20 min. Excess stain was rinsed off by thorough washing with deionized water and then with […] densities (ODs) of stained adherent bacteria were determined with an enzyme-linked immunosorbent assay (ELISA) plate reader at a 630 nm wavelength. […] Only broth or broth with extracts served as a control to check the sterility and nonspecific binding of media. To compensate for background absorbance, OD readings from sterile medium, extracts, fixative, and dye were averaged and subtracted from all test values. All tests were performed in duplicate.

A further assay relates to P. aeruginosa biofilm. The description is as above. In kind it is cell-based, Pseudomonas aeruginosa. The following applies: 48 h; for IC50: Pseudomonas aeruginosa, read-out: BIC50 (biofilm inhibitory concentration, 50% reduction of biofilm coverage). As for the experimental part:
as §7

Where [5] appears, read: S. aureus ATCC 6538, 37 °C, 48 h.

As a reminder, the GI50 is the concentration at which growth is held to half of that of the control. Take `COc1cccc2c1C(=O)c1c(O)c3c(c(O)c1C2=O)C[C@@](O)(C(=O)CO)C[C@@H]3O[C@H]1C[C@H](N)[C@H](O)[C@H](C)O1` [DOX, doxorubicin]: the “TGI (total growth inhibition)” value is less than 0.1 µg/mL in assay [1] (24 h); less than 0.1 µg/mL in assay [1] (48 h); less than 0.1 µg/mL in assay [1] (72 h); less than 0.1 µg/mL in assay [2] (HCT 116, 24 h); less than 0.1 µg/mL in assay [2] (HCT 116, 48 h); less than 0.1 µg/mL in assay [2] (HCT 116, 72 h). Besides, the “TGI (total growth inhibition)” value in assay [3] (MRC-5, 24 h) is on record as 54.71 ± 4.65 µg/mL (≈ 101 µM); in assay [3] (MRC-5, 48 h) it was 6.34 ± 2.90 µg/mL (≈ 11.7 µM); in assay [3] (MRC-5, 72 h), 2.35 ± 0.35 µg/mL (≈ 4.32 µM). The GI50 in assay [1] (24 h) was less than 0.1 µg/mL; in assay [1] (48 h), less than 0.1 µg/mL; in assay [1] (72 h), less than 0.1 µg/mL; in assay [2] (HCT 116, 24 h) it was less than 0.1 µg/mL; in assay [2] (HCT 116, 48 h) it was less than 0.1 µg/mL; in assay [2] (HCT 116, 72 h) it was less than 0.1 µg/mL. Also, the GI50 in assay [3] (MRC-5, 24 h) is less than 0.1 µg/mL; in assay [3] (MRC-5, 48 h), less than 0.1 µg/mL; in assay [3] (MRC-5, 72 h), less than 0.1 µg/mL. Also, the IC50 was 22.9 ± 3.05 µg/mL (≈ 42.2 µM) in assay [1] (24 h); 1.04 ± 0.06 µg/mL (≈ 1.91 µM) in assay [1] (48 h); 0.14 ± 0.01 µg/mL (≈ 0.258 µM) in assay [1] (72 h); 153 ± 9.69 µg/mL (≈ 281 µM) in assay [2] (HCT 116, 24 h); 0.41 ± 0.16 µg/mL (≈ 0.754 µM) in assay [2] (HCT 116, 72 h); 86.9 ± 17.2 µg/mL (≈ 160 µM) in assay [3] (MRC-5, 24 h). For the same compound, the IC50 in assay [3] (MRC-5, 48 h) was 0.96 ± 0.1 µg/mL (≈ 1.77 µM); in assay [3] (MRC-5, 72 h) it was 0.1 ± 0.05 µg/mL (≈ 0.184 µM). In addition, the “SI (selectivity index)” value in assay [1] (24 h) is recorded as 3.8; in assay [1] (48 h), 0.92; in assay [1] (72 h), 0.71; in assay [2] (IC50 MRC-5 / IC50 HCT 116, 24 h) it was 0.57; in assay [2] (IC50 MRC-5 / IC50 HCT 116, 72 h), 0.24.

Broadly, the MFC is the smallest concentration meeting the test's criterion for killing the fungus. A word on the MIC: it is the smallest concentration in the dilution series that meets the test's criterion for growth inhibition. On to `C[C@@H]1[C@H](O)[C@@H](C)/C=C/C=C/C=C/C=C/C=C/C=C/C=C/[C@H](O[C@@H]2O[C@H](C)[C@@H](O)[C@H](N)[C@@H]2O)C[C@@H]2O[C@](O)(C[C@@H](O)C[C@@H](O)[C@H](O)CC[C@@H](O)C[C@@H](O)CC(=O)O[C@H]1C)C[C@H](O)[C@H]2C(=O)O` [AB, amphotericin B], for which the MFC amounted to 0.98 µg/mL (≈ 1.06 µM) with A. niger ATCC 16888 (read-out: MFC), 1.95 µg/mL (≈ 2.11 µM) in the assay on C. albicans (isolate) (read-out: MFC) and 1.95 µg/mL (≈ 2.11 µM) in the assay on C. albicans ATCC 10231 (read-out: MFC). For the same compound, the MIC with A. niger ATCC 16888 (read-out: MIC) is 0.98 µg/mL (≈ 1.06 µM); with C. albicans (isolate) (read-out: MIC), 0.98 µg/mL (≈ 1.06 µM); with C. albicans ATCC 10231 (read-out: MIC), 0.49 µg/mL (≈ 0.53 µM).

Consider `CN[C@H](CC(C)C)C(=O)N[C@H]1C(=O)N[C@@H](CC(N)=O)C(=O)N[C@H]2C(=O)N[C@H]3C(=O)N[C@H](C(=O)N[C@H](C(=O)O)c4cc(O)cc(O)c4-c4cc3ccc4O)[C@H](O)c3ccc(c(Cl)c3)Oc3cc2cc(c3O[C@@H]2O[C@H](CO)[C@@H](O)[C@H](O)[C@H]2O[C@H]2C[C@](C)(N)[C@H](O)[C@H](C)O2)Oc2ccc(cc2Cl)[C@H]1O` [VM, vancomycin], for which the “BIC90 (biofilm inhibitory concentration, 90% reduction of biofilm coverage)” value in assay [4] (setting [5]) is reported as more than 1000 µg/mL; in the assay with P. aeruginosa biofilm (P. aeruginosa, 37 °C) it was more than 1000 µg/mL. In addition, the IC50 in assay [4] (ATCC6538, 48 h) is 62.6 µg/mL (≈ 43.2 µM); with P. aeruginosa biofilm, 734 µg/mL (≈ 506 µM).

As for `CO/N=C(\C(=O)N[C@@H]1C(=O)N2C(C(=O)O)=C(CSc3nc(=O)c(=O)[nH]n3C)CS[C@H]12)c1csc(N)n1` [CT, ceftriaxone], the “BIC90 (biofilm inhibitory concentration, 90% reduction of biofilm coverage)” value in assay [4] (setting [5]) is more than 1000 µg/mL; in the assay with P. aeruginosa biofilm (P. aeruginosa, 37 °C) it was more than 1000 µg/mL. Moreover, the IC50 in assay [4] (ATCC6538, S. aureus ATCC 6538, 37 °C, 48 h) worked out at 475 µg/mL (≈ 857 µM); with P. aeruginosa biofilm (P. aeruginosa, 37 °C), 116 µg/mL (≈ 210 µM).

(Values after publication PMC9269301, “Phytochemical Analysis, Antioxidant, Antimicrobial, and Cytotoxic Activity of Different Extracts of Xanthoparmelia stenophylla Lichen from Stara Planina, Serbia” (Plants, 2022).)
